This assay concerns the target T1, BRM (Homo sapiens, UniProt P51531).
T1 construct: Western Blot Screen of BRM Degradation in SW1573 Cells; endogenous in cells; host or cells: SW1573 cells
The assay can be described thus: BRM degradation (Dmax and DC50) in SW1573 cells, Western blot screen / In-Cell Western screen. In kind it is cell-based. To be noted: overnight (18-20 hours) treatment; for Dmax: read-out: Dmax (%)** (% degraded). The protocol:
To assess BRM degradation (Dmax and DC50) cells were seeded at 8000/well in 96-well black/clear-bottom plates in 180 μL DMEM growth media (containing 1% pen-strep, 1% HEPES and 10% FBS) per well. Plates were incubated overnight to allow adhesion. The next morning cells were treated by adding 20 μL of 10× target compound concentration (1% DMSO) to appropriate wells and returned to incubator for overnight (18-20 hours). The final DMSO concentration was 0.1%.
For lysing, adherent cells were washed once with 100 μL of DPBS. Cells were lysed in 40 μL of 1×RIPA+HALT protease inhibitor on ice for 10 minutes and frozen until use at −80° C. Thawed lysates were cleaned by filtration in 1.2 µm filter plates, or alternatively, were spun clean at 2300 g at 4° C. for 30 minutes.
For blotting, for each Western sample 30 μL of lysate was added to 10 μL of 4× LDS sample buffer, then denatured at 95° C. for 5 minutes in the thermal cycler and placed on ice. Samples were loaded on 4-15% Tris/Glycine gels and run for 25 minutes at 250 constant volts in 1× Tris/Glycine buffer with 4 μL of ladder and 12 μL of each sample loaded for each blot. Protein was transferred from gels to NC with BioRad Turbo dry-transfer unit with the Turbo/midi default program. All blots were rinsed with ddH2O and blocked for 1 hour at room temperature in 5% BSA in TBST (0.1%) on rocker. Blots were exposed to primary antibody in 5% BSA in TBST (0.1%) overnight at 4° C. on rocker (1:1000 for BRM (Cell Signaling Tech. cat #11966) and 1:2000 for alpha-tubulin (Cell Signaling Tech. cat #3873), a control protein. Blot was washed with TBST (0.1%) three times for 5 minutes on rocker at room temperature. Secondary antibody was added, and blots were incubated on a room temperature rocker for 1 hour with 1:18,000 anti-rabbit-HRP and/or anti-mouse-HRP in 5% BSA in TBST (0.1%). Blots were washed three times in TBST (0.1%) for 5 minutes at room temperature on the rocker. Signal was developed with Femto Maximum Sensitivity substrate for 4 minutes and blots read on ChemiDoc™.
To assess BRM degradation (Dmax and DC50), cells were seeded at 8000/well in 96-well black/clear-bottom plates in 180 μL DMEM growth media (containing 1% pen-strep, 1% HEPES and 10% FBS) per well. Plates were incubated overnight to allow adhesion. The next morning cells were treated by adding 20 μL of 10× compound (1% DMSO) to appropriate wells and returned to incubator for overnight (18-20 hours). The final DMSO concentration was 0.1%.
For processing, the plates were removed from incubator, the media was removed, and immediately 200 μL of cold (4° C.) DPBS was added to all wells. DPBS was then removed, and 50 μL of 4% paraformaldehyde (PFA) in DPBS (4° C.) was added to all wells, and the plates were incubated at room temperature for 20 minutes. PFA was then removed, and 200 μL of TBS-T containing 0.5% Triton X-100 was added to all wells, and the plates were incubated at room temperature for 30 minutes. TBS-T containing 0.5% Triton X-100 was then removed, and 50 μL of Li-Cor blocking solution was added, and the plates were incubated at room temperature for a minimum of one hour. The blocking solution was removed, and 50 μL of Li-Cor blocking solution containing primary antibody cocktail was added (1:1000 for BRM (Cell Signaling Tech. cat #11966) and 1:2000 for alpha-tubulin (Sigma cat #T6074), a control protein. Plates were then placed in cold room until the next day.
The next day plates were washed three times with TBS-T, 200 μL per well. Fifty […] of secondary antibody cocktail in LI-COR blocking solution (anti-rabbit_800 nm and anti-mouse_680 nm) was added to all wells (diluted 1:5000). The plates were incubated at room temperature for at least one hour while protected from light. The plates were washed twice with TBS-T, 200 μL per well.
To read each plate TBS-T was removed, and each plate was inverted tapped on a paper towel. […]
(Immunoblotting shows a protein as a band on a membrane.)

Each structure is given as a SMILES string.

Broadly, the DC50 is the concentration giving 50% degradation. Low readings indicate degradation at low concentration, high ones degradation only at high concentration. One may read the Dmax as the greatest extent of degradation seen.

T1 sequence (P51531 whole entry): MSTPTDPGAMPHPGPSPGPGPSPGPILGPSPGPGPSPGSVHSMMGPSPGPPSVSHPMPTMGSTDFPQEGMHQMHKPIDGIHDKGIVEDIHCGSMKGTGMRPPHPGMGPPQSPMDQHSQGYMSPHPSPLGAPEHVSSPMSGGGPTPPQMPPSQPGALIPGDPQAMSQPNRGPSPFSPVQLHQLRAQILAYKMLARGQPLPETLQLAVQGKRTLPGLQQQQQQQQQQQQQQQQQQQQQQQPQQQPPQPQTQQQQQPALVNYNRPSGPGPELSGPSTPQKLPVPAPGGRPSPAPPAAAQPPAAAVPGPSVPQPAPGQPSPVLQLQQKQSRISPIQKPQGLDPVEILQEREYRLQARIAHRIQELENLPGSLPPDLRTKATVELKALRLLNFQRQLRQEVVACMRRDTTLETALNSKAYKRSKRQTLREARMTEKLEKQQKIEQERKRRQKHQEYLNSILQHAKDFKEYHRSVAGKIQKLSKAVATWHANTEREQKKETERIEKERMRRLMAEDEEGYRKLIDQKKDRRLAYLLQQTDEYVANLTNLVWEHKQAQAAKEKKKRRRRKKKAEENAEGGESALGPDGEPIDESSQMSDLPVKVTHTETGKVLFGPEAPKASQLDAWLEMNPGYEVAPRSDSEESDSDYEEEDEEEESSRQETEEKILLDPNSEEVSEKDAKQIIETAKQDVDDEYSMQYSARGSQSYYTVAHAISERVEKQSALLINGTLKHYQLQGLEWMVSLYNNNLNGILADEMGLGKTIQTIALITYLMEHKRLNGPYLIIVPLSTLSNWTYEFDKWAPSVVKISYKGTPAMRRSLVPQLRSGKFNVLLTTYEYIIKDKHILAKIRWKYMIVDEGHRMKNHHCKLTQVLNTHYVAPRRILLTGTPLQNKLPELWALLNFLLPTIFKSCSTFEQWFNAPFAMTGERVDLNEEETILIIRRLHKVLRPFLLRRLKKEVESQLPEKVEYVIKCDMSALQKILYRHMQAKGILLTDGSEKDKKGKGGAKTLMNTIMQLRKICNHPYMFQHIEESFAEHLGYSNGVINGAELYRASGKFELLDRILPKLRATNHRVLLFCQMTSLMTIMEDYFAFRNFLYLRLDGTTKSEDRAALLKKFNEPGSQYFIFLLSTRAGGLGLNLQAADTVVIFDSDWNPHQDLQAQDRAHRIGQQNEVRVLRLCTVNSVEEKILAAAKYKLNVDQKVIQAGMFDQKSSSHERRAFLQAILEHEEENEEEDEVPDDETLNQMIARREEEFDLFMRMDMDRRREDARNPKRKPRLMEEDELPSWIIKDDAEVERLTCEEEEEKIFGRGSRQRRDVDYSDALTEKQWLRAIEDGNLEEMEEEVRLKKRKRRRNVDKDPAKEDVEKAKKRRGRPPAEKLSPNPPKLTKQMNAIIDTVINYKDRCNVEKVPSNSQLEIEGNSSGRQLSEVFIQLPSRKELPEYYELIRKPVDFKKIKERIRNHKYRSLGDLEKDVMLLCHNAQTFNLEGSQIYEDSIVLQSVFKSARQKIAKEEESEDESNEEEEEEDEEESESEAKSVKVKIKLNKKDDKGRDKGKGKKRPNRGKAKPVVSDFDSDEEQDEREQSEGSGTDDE

With `CC(C)[C@@H](C(=O)N1C[C@H](O)C[C@H]1C(=O)N[C@@H](C)c1ccc(C#N)cc1)c1cc(N2CCC(CN3CCC(O[C@H]4C[C@H](Oc5cc(N6CC7CCC(C6)N7c6cc(-c7ccccc7O)nnc6N)ccn5)C4)CC3)CC2)no1` [Compound 15, (2S,4R)-N-[(1S)-1-(4-cyanophenyl)ethyl]-4-hydroxy-1-[(2R)-3-methyl-2-{3-[4-({4-[(1r,3r)-3-[(4-{8-[3-amino-6-(2-hydroxyphenyl)pyridazin-4-yl]-3,8-diazabicyclo[3.2.1]octan-3-yl}pyridin-2-yl)oxy]cyclobutoxy]piperidin-1-yl}methyl)piperidin-1-yl]-1,2-oxazol-5-yl}butanoyl]pyrrolidine-2-carboxamide], the DC50 lay in the range of 2.5 to 10 nM and the Dmax is greater than 75%.
In the case of `CC(C)[C@@H](C(=O)N1C[C@H](O)C[C@H]1C(=O)N[C@@H](C)c1ccc(C#N)cc1)c1cc(N2CCC(CN3CCC(O[C@H]4C[C@H](Oc5cc(N6C7CCCC6CN(c6cc(-c8ccccc8O)nnc6N)C7)ccn5)C4)CC3)CC2)no1` [Compound 16, (2S,4R)-N-[(1S)-1-(4-cyanophenyl)ethyl]-4-hydroxy-1-[(2R)-3-methyl-2-{3-[4-({4-[(1r,3r)-3-[(4-{3-[3-amino-6-(2-hydroxyphenyl)pyridazin-4-yl]-3,9-diazabicyclo[3.3.1]nonan-9-yl}pyridin-2-yl)oxy]cyclobutoxy]piperidin-1-yl}methyl)piperidin-1-yl]-1,2-oxazol-5-yl}butanoyl]pyrrolidine-2-carboxamide], the DC50 was less than 2.5 nM and the Dmax was greater than 75%.
Taken in the same sequence, the figures for `CC(C)[C@@H](C(=O)N1C[C@H](O)C[C@H]1C(=O)N[C@@H](C)c1ccc(C#N)cc1)c1cc(N2CCC(CN3CCC(O[C@H]4C[C@H](Oc5cc(N6C7CC6CN(c6cc(-c8ccccc8O)nnc6N)C7)ccn5)C4)CC3)CC2)no1` [Compound 17, (2S,4R)-N-[(1S)-1-(4-cyanophenyl)ethyl]-4-hydroxy-1-[(2R)-3-methyl-2-{3-[4-({4-[(1r,3r)-3-[(4-{3-[3-amino-6-(2-hydroxyphenyl)pyridazin-4-yl]-3,6-diazabicyclo[3.1.1]heptan-6-yl}pyridin-2-yl)oxy]cyclobutoxy]piperidin-1-yl}methyl)piperidin-1-yl]-1,2-oxazol-5-yl}butanoyl]pyrrolidine-2-carboxamide] were less than 2.5 nM and greater than 75%.
In turn, `Cc1ncsc1-c1ccc([C@H](C)NC(=O)[C@@H]2C[C@@H](O)CN2C(=O)[C@H](c2cc(N3C4CCC3CC(CN3CCC(O[C@H]5C[C@H](Oc6cc(N7C8CCC7CN(c7cc(-c9ccccc9O)nnc7N)C8)ccn6)C5)CC3)C4)no2)C(C)C)cc1` (stereo partly drawn) [Compound 18, (2S,4R)-4-hydroxy-N-[(1S)-1-[4-(4-methyl-1,3-thiazol-5-yl)phenyl]ethyl]-1-[(2S)-3-methyl-2-{3-[3-({4-[(1r*,3r*)-3-[(4-{3-[3-amino-6-(2-hydroxyphenyl)pyridazin-4-yl]-3,8-diazabicyclo[3.2.1]octan-8-yl}pyridin-2-yl)oxy]cyclobutoxy]piperidin-1-yl}methyl)-8-azabicyclo[3.2.1]octan-8-yl]-1,2-oxazol-5-yl}butanoyl]pyrrolidine-2-carboxamide] showed a DC50 of no less than 30 nM.
`Cc1ncsc1-c1ccc([C@H](C)NC(=O)[C@@H]2C[C@@H](O)CN2C(=O)[C@@H](c2cc(N3CCC(CN4CCC(O)(C#C[C@H]5C[C@H](Oc6cc(N7C8CCC7CN(c7cc(-c9ccccc9O)nnc7N)C8)ccn6)C5)CC4)CC3)no2)C(C)C)cc1` [Compound 19, (2S,4R)-4-hydroxy-1-[(2R)-2-(3-{4-[(4-hydroxy-4-{2-[(1r,3r)-3-[(4-{3-[3-amino-6-(2-hydroxyphenyl)pyridazin-4-yl]-3,8-diazabicyclo[3.2.1]octan-8-yl}pyridin-2-yl)oxy]cyclobutyl]ethynyl}piperidin-1-yl)methyl]piperidin-1-yl}-1,2-oxazol-5-yl)-3-methylbutanoyl]-N-[(1S)-1-[4-(4-methyl-1,3-thiazol-5-yl)phenyl]ethyl]pyrrolidine-2-carboxamide]: the DC50 was less than 2.5 nM and the Dmax is greater than 75%.
For the compound `Cc1ncsc1-c1ccc([C@H](C)NC(=O)[C@@H]2C[C@@H](O)CN2C(=O)[C@@H](c2cc(N3CCC(CN4CCC(O[C@H]5C[C@H](N6CCC(C#N)(CN7C8CCC7CN(c7cc(-c9ccccc9O)nnc7N)C8)CC6)C5)CC4)CC3)no2)C(C)C)cc1` [Compound 20, (2S,4R)-4-hydroxy-N-[(1S)-1-[4-(4-methyl-1,3-thiazol-5-yl)phenyl]ethyl]-1-[(2R)-3-methyl-2-{3-[4-({4-[(1r,3r)-3-[4-({3-[3-amino-6-(2-hydroxyphenyl)pyridazin-4-yl]-3,8-diazabicyclo[3.2.1]octan-8-yl}methyl)-4-cyanopiperidin-1-yl]cyclobutoxy]piperidin-1-yl}methyl)piperidin-1-yl]-1,2-oxazol-5-yl}butanoyl]pyrrolidine-2-carboxamide], the DC50 is less than 2.5 nM and the Dmax is greater than 75%.
On to `Cc1ncsc1-c1ccc([C@H](C)NC(=O)[C@@H]2C[C@@H](O)CN2C(=O)[C@@H](c2cc(N3C4CCC3CC(CN3CCC(O[C@H]5C[C@H](Oc6cc(N7C8CCC7CN(c7cc(-c9ccccc9O)nnc7N)C8)ccn6)C5)CC3)C4)no2)C(C)C)cc1` (stereo partly drawn) [Compound 21, (2S,4R)-4-hydroxy-N-[(1S)-1-[4-(4-methyl-1,3-thiazol-5-yl)phenyl]ethyl]-1-[(2R)-3-methyl-2-{3-[3-({4-[(1r,3r)-3-[(4-{3-[3-amino-6-(2-hydroxyphenyl)pyridazin-4-yl]-3,8-diazabicyclo[3.2.1]octan-8-yl}pyridin-2-yl)oxy]cyclobutoxy]piperidin-1-yl}methyl)-8-azabicyclo[3.2.1]octan-8-yl]-1,2-oxazol-5-yl}butanoyl]pyrrolidine-2-carboxamide], for which the DC50 is less than 2.5 nM and the Dmax is greater than 75%.
Taken in the same sequence, the figures for `Cc1ncsc1-c1ccc([C@H](C)NC(=O)[C@@H]2C[C@@H](O)CN2C(=O)[C@@H](c2cc(N3CCC(CN4CCC(O[C@H]5C[C@H](N6CCC(C(C)(C)N7C8CCC7CN(c7cc(-c9ccccc9O)nnc7N)C8)CC6)C5)CC4)CC3)no2)C(C)C)cc1` [Compound 22, (2S,4R)-4-hydroxy-N-[(1S)-1-[4-(4-methyl-1,3-thiazol-5-yl)phenyl]ethyl]-1-[(2R)-3-methyl-2-{3-[4-({4-[(1r,3r)-3-[4-(2-{3-[3-amino-6-(2-hydroxyphenyl)pyridazin-4-yl]-3,8-diazabicyclo[3.2.1]octan-8-yl}propan-2-yl)piperidin-1-yl]cyclobutoxy]piperidin-1-yl}methyl)piperidin-1-yl]-1,2-oxazol-5-yl}butanoyl]pyrrolidine-2-carboxamide] were less than 2.5 nM and greater than 75%.
Regarding `Cc1ncsc1-c1ccc([C@H](C)NC(=O)[C@@H]2C[C@@H](O)CN2C(=O)[C@@H](c2cc(N3CCC(CN4CCC(O[C@H]5C[C@H](N6CCO[C@H](CN7C8CCC7CN(c7cc(-c9ccccc9O)nnc7N)C8)C6)C5)CC4)CC3)no2)C(C)C)cc1` [Compound 23, (2S,4R)-4-hydroxy-N-[(1S)-1-[4-(4-methyl-1,3-thiazol-5-yl)phenyl]ethyl]-1-[(2R)-3-methyl-2-{3-[4-({4-[(1r,3r)-3-[(2S)-2-({3-[3-amino-6-(2-hydroxyphenyl)pyridazin-4-yl]-3,8-diazabicyclo[3.2.1]octan-8-yl}methyl)morpholin-4-yl]cyclobutoxy]piperidin-1-yl}methyl)piperidin-1-yl]-1,2-oxazol-5-yl}butanoyl]pyrrolidine-2-carboxamide], the DC50 was less than 2.5 nM and the Dmax was greater than 75%.
